Test results: PubChem BioAssay AID1919002 (Molecular Pharmacology Branch, DTP, NCI, 2023)
“And” between values parts separate entries of the source, which are not always exact repeats. Equal entries are not always repeated.

System: 743489-274-T-PDC complex spheroid growth
Test: Anticancer human tumor 743489-274-T-PDC patient-derived renal cell carcinoma cell line growth inhibition [AhR]
Details: for viability, T/C: stronger effect = lower value
Outline: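 Spheroids combined tumor cells with HUVEC endothelial cells and human MSCs as stroma. AhR antagonists were paired with standard or investigational drugs, each dosed in half-log steps down from near clinical Cmax, or from 10 microM where Cmax was unknown.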

[1] = curve of first compound, second compound 0.1 µM
[2] = curve of first compound, second compound 0.316 µM
[3] = curve of first compound, second compound 1 µM
[4] = curve of first compound, second compound 3.16 µM
[5] = curve of first compound, second compound 10 µM
[6] = second compound 0.1 µM, first compound 0.0316 µM
[7] = second compound 0.1 µM, first compound 0.1 µM
[8] = second compound 0.1 µM, first compound 0.316 µM
[9] = second compound 0.1 µM, first compound 1 µM
[10] = second compound 0.1 µM, first compound 3.16 µM
[11] = second compound 0.1 µM, first compound 10 µM
[12] = second compound 0.316 µM, first compound 0.0316 µM
[13] = second compound 0.316 µM, first compound 0.1 µM
[14] = second compound 0.316 µM, first compound 0.316 µM
[15] = second compound 0.316 µM, first compound 1 µM
[16] = second compound 0.316 µM, first compound 3.16 µM
[17] = second compound 0.316 µM, first compound 10 µM
[18] = second compound 1 µM, first compound 0.0316 µM
[19] = second compound 1 µM, first compound 0.1 µM
[20] = second compound 1 µM, first compound 0.316 µM
[21] = second compound 1 µM, first compound 1 µM
[22] = second compound 1 µM, first compound 3.16 µM
[23] = second compound 1 µM, first compound 10 µM
[24] = second compound 3.16 µM, first compound 0.0316 µM
[25] = second compound 3.16 µM, first compound 0.1 µM
[26] = second compound 3.16 µM, first compound 0.316 µM
[27] = second compound 3.16 µM, first compound 1 µM
[28] = second compound 3.16 µM, first compound 3.16 µM
[29] = second compound 3.16 µM, first compound 10 µM
[30] = second compound 10 µM, first compound 0.0316 µM
[31] = second compound 10 µM, first compound 0.1 µM
[32] = second compound 10 µM, first compound 0.316 µM
[33] = second compound 10 µM, first compound 1 µM
[34] = second compound 10 µM, first compound 3.16 µM
[35] = second compound 10 µM, first compound 10 µM
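Further: spheroids exposed to agents for 7 days before readout.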
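Wherever viability, T/C is given: 100% = DMSO vehicle control wells.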

CCc1c2c(nc3ccc(O)cc13)-c1cc3c(c(=O)n1C2)COC(=O)[C@]3(O)CC + Cc1cncc(-c2nc(NCCc3c[nH]c4ccccc34)c3ncn(C(C)C)c3n2)c1
IC50 [1]: > 0.3 µM
IC50 [2]: > 0.3 µM
IC50 [3]: > 0.3 µM
IC50 [4]: > 0.3 µM
IC50 [5]: > 0.3 µM
viability, T/C (second compound 0.1 µM, first compound 0.000949 µM): 106%
viability, T/C (second compound 0.1 µM, first compound 0.003 µM): 103%
viability, T/C (second compound 0.1 µM, first compound 0.00949 µM): 97.1%
viability, T/C (second compound 0.1 µM, first compound 0.03 µM): 89.1%
viability, T/C (second compound 0.1 µM, first compound 0.0949 µM): 79.4%
viability, T/C (second compound 0.1 µM, first compound 0.3 µM): 76.6%
viability, T/C (second compound 0.316 µM, first compound 0.000949 µM): 98.8%
viability, T/C (second compound 0.316 µM, first compound 0.003 µM): 95%
viability, T/C (second compound 0.316 µM, first compound 0.00949 µM): 98.5%
viability, T/C (second compound 0.316 µM, first compound 0.03 µM): 82.2%
viability, T/C (second compound 0.316 µM, first compound 0.0949 µM): 69.5%
viability, T/C (second compound 0.316 µM, first compound 0.3 µM): 64.6%
viability, T/C (second compound 1 µM, first compound 0.000949 µM): 102%
viability, T/C (second compound 1 µM, first compound 0.003 µM): 106%
viability, T/C (second compound 1 µM, first compound 0.00949 µM): 110%
viability, T/C (second compound 1 µM, first compound 0.03 µM): 79.9%
viability, T/C (second compound 1 µM, first compound 0.0949 µM): 94.8%
viability, T/C (second compound 1 µM, first compound 0.3 µM): 66.6%
viability, T/C (second compound 3.16 µM, first compound 0.000949 µM): 113%
viability, T/C (second compound 3.16 µM, first compound 0.003 µM): 102%
viability, T/C (second compound 3.16 µM, first compound 0.00949 µM): 98.6%
viability, T/C (second compound 3.16 µM, first compound 0.03 µM): 80.7%
viability, T/C (second compound 3.16 µM, first compound 0.0949 µM): 73.1%
viability, T/C (second compound 3.16 µM, first compound 0.3 µM): 73.9%
viability, T/C (second compound 10 µM, first compound 0.000949 µM): 131%
viability, T/C (second compound 10 µM, first compound 0.003 µM): 135%
viability, T/C (second compound 10 µM, first compound 0.00949 µM): 128%
viability, T/C (second compound 10 µM, first compound 0.03 µM): 102%
viability, T/C (second compound 10 µM, first compound 0.0949 µM): 95%
viability, T/C (second compound 10 µM, first compound 0.3 µM): 68.4%

COc1cccc2c1C(=O)c1c(O)c3c(c(O)c1C2=O)CC(O)(C(=O)CO)CC3OC1CC(N)C(O)C(C)O1 (configuration not stated) + CC(CO)NC(=O)c1cc(-c2ccc(Cl)cc2)nn(-c2cnn(C)c2)c1=O
IC50 [1]: 8.45 µM
IC50 [2]: 9.32 µM
IC50 [3]: 8.98 µM
IC50 [4]: 6.53 µM
IC50 [5]: 3.24 µM
viability, T/C [6]: 101%
viability, T/C [7]: 106%
viability, T/C [8]: 107%
viability, T/C [9]: 96.3%
viability, T/C [10]: 108%
viability, T/C [11]: 40.6%
viability, T/C [12]: 93.7%
viability, T/C [13]: 106%
viability, T/C [14]: 108%
viability, T/C [15]: 93.5%
viability, T/C [16]: 102%
viability, T/C [17]: 46.7%
viability, T/C [18]: 110%
viability, T/C [19]: 95%
viability, T/C [20]: 107%
viability, T/C [21]: 97%
viability, T/C [22]: 93.2%
viability, T/C [23]: 45.5%
viability, T/C [24]: 88%
viability, T/C [25]: 91.6%
viability, T/C [26]: 108%
viability, T/C [27]: 96.7%
viability, T/C [28]: 88.2%
viability, T/C [29]: 27.4%
viability, T/C [30]: 92%
viability, T/C [31]: 103%
viability, T/C [32]: 101%
viability, T/C [33]: 89.7%
viability, T/C [34]: 51.2%
viability, T/C [35]: 0.36%

Nc1ccn(C2OC(CO)C(O)C2(F)F)c(=O)n1 (configuration not stated) + Cc1ccccc1N=Nc1ccc(NC(=O)c2ccnn2C)c(C)c1
IC50 [1]: > 10 µM
IC50 [2]: > 10 µM
IC50 [3]: 9.15 µM
IC50 [4]: 1.48 µM
IC50 [5]: > 10 µM
viability, T/C [6]: 65%
viability, T/C [7]: 62.7%
viability, T/C [8]: 54.7%
viability, T/C [9]: 63.4%
viability, T/C [10]: 57.1%
viability, T/C [11]: 59.1%
viability, T/C [12]: 66.4%
viability, T/C [13]: 62%
viability, T/C [14]: 56.5%
viability, T/C [15]: 59.4%
viability, T/C [16]: 54.8%
viability, T/C [17]: 53.1%
viability, T/C [18]: 61%
viability, T/C [19]: 57.4%
viability, T/C [20]: 65.6%
viability, T/C [21]: 56.7%
viability, T/C [22]: 51.2%
viability, T/C [23]: 50.8%
viability, T/C [24]: 68.1%
viability, T/C [25]: 55.8%
viability, T/C [26]: 51.9%
viability, T/C [27]: 45.5%
viability, T/C [28]: 50.8%
viability, T/C [29]: 52.3%
viability, T/C [30]: 69.9%
viability, T/C [31]: 56.9%
viability, T/C [32]: 51.4%
viability, T/C [33]: 60.6%
viability, T/C [34]: 47.8%
viability, T/C [35]: 55.4%

Nc1ncn(C2CC(O)C(CO)S2)c(=O)n1 (configuration not stated)
viability, T/C (compound 0.000949 µM): 110% and 93.5% and 116%
viability, T/C (compound 0.003 µM): 104% and 98.1% and 105%
viability, T/C (compound 0.00949 µM): 96.2% and 94.2% and 111%
viability, T/C (compound 0.03 µM): 102% and 85.6% and 96.6%
viability, T/C (compound 0.0949 µM): 97.2% and 95% and 103%
viability, T/C (compound 0.3 µM): 97.2% and 89.2% and 103%
IC50 (curve of compound): > 0.3 µM

NS(=O)(=O)OCC1CC(n2ccc3c(NC4CCc5ccccc54)ncnc32)CC1O (configuration not stated) + CC(CO)NC(=O)c1cc(-c2ccc(Cl)cc2)nn(-c2cnn(C)c2)c1=O
IC50 [1]: > 10 µM
IC50 [2]: > 10 µM
IC50 [3]: > 10 µM
IC50 [4]: > 10 µM
IC50 [5]: > 10 µM
viability, T/C [6]: 89.3%
viability, T/C [7]: 89.7%
viability, T/C [8]: 101%
viability, T/C [9]: 123%
viability, T/C [10]: 149%
viability, T/C [11]: 155%
viability, T/C [12]: 86.1%
viability, T/C [13]: 82.3%
viability, T/C [14]: 85.7%
viability, T/C [15]: 119%
viability, T/C [16]: 148%
viability, T/C [17]: 156%
viability, T/C [18]: 82.3%
viability, T/C [19]: 96.7%
viability, T/C [20]: 99.2%
viability, T/C [21]: 116%
viability, T/C [22]: 141%
viability, T/C [23]: 143%
viability, T/C [24]: 91.1%
viability, T/C [25]: 86.1%
viability, T/C [26]: 99.2%
viability, T/C [27]: 109%
viability, T/C [28]: 132%
viability, T/C [29]: 136%
viability, T/C [30]: 89.5%
viability, T/C [31]: 96.1%
viability, T/C [32]: 84.8%
viability, T/C [33]: 112%
viability, T/C [34]: 119%
viability, T/C [35]: 129%
